# *1 amine or outer side, *2 acyl side, *3 side chain or, on linkers, in order; H or OH if unused. Where a SMILES comes first, the peptide text is derived from it. Bridges are numbered along the chain shown (N, C = ends). Roman numbers before positions name the chains, in order. [ ]: non-standard residue; d: D form. Actinocin(9to1) = Cc1c2oc3c(C)ccc(C(=O)[*:1])c3nc-2c(C(=O)[*:2])c(N)c1=O; NMeV = CN[C@H](C(=O)O)C(C)C; Sar = CNCC(=O)O
# T1: AtSAL1 (Arabidopsis thaliana, UniProt Q42546)
# T1 construct: Ubiquitin fusion partner (pHUE vector) (cleaved yes); made in house; host or cells: Escherichia coli BL21 DE3
# T1 sequence (Q42546 1-353): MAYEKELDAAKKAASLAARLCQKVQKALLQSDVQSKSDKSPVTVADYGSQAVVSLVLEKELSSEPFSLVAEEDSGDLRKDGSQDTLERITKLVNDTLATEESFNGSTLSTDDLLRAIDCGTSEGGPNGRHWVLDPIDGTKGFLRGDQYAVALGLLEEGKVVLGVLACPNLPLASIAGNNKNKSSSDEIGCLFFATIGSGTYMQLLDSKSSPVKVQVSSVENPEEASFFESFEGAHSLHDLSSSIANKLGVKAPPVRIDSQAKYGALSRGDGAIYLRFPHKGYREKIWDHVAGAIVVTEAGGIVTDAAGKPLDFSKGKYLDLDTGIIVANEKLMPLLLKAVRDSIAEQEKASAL
# B1: Arabidopsis thaliana SAL1, mature recombinant protein (transit peptide excluded) (protein)
# chain: T1 sequence (Q42546 1-353)
# Tests used:
# [1] = PAP accumulation in leaves after petiole feeding; assay type: in vivo, Arabidopsis; details: petiole feeding of PAP for 1 h, alone or co-applied with LiCl or ATP
# Procedure: (§1) Five- to six-week-old plants were used to prepare epidermal peels. ABA at a concentration of 20 μM in water was root fed to hydroponically grown plants or sprayed onto leaves using a Studio Series IS-875 with a 0.5 mm nozzle opening (Iwata). We investigated if PAP accumulation in the double mutants could affect the production of NO during ABA-induced stomatal closure by treating epidermal peels with the inhibitor of NO synthase N(G)-methyl-L-arginine (NMA). For the investigation of the effect of different chemicals on stomatal closure, 20 μM ABA (Sigma-Aldrich), 100 mM LiCl, or 1 mM ATP, 1 mM or 100 μM PAP (Sigma-Aldrich) alone or in different combinations were prepared in infiltration buffer (1 mM PIPES KOH pH 6.0, 1 mM Sodium citrate, 1 mM KCl, 15 mM Sucrose) modified from a cordycepin infiltration buffer.
# Total adenosines were extracted with 0.1 M HCl, derivatization with chloroacetaldehyde and quantified fluorometrically after HPLC fractionation. 3′-phosphoadenosine 5′-phosphate (PAP) quantification was performed by integrating the HPLC peak area and converting these to pmol units using standard curves of 1, 5 and 10 pmol standard.
# stomata = assay: Stomatal aperture in epidermal leaf peels; assay type: cell-based, Arabidopsis; details: for stomatal closure response to exogenous PAP with co-treatment: LiCl (SAL1 inhibitor) or ATP (PAP antiporter co-substrate) with PAP; for effect of inhibitor on ABA-induced stomatal closure: epidermal peels treated with ABA plus inhibitor
# Procedure: as §1
# Measurements of stomatal aperture were performed with epidermal strips taken from five- to six-week-old plants. Fully developed leaves were cut and placed with their adaxial side onto cello tape. The vein was removed by razor blade and the abaxial epidermis was subsequently peeled off by using another strip of cello tape. To promote stomatal opening, the peels left adhered to the Scotch (810D Magic Tape, ¾ inch, 3M) were placed in petri dishes filled with stomatal opening solution (10 mM MES, 5 mM KCl, 50 μM CaCl2, pH 6.5) and incubated for 2 h at 22° C. under 150-200 μmol photons m^−2 s^−1 of light. Once the stomata were fully open, strips were maintained in the opening buffer or treated with various compounds according to the experiment. After treatment, photographs of stomata were taken using Leica microscope (Leica Microsystems, Wetzlar, Germany) at 20×. Stomatal aperture was measured using the image-processing software ImageJ. For stomatal aperture measurements, the ratio of stomatal pore width and length was used instead of width as this normalizes the pores of stomata of different size. Small stomata with a stomatal pore length of less than 7.5 μm were discarded. For each data point, 90 stomata were measured in 3 independent experiments. In each experiment, 10 stomata were measured in 3 epidermal strips per sample per treatment.
# Measurements of stomatal closure in response to ABA, PAP, cordycepin and ATP treatments were performed on epidermal strips from Arabidopsis and barley plants grown under specific conditions. Plants were grown under high humidity (approximately 80% RH) and 12 h/12 h and 22/20° C. light/dark cycle in a growth chamber. Epidermal peels of newly expanding true leaves of three to four-week old plants. Stomatal apertures were measured in epidermal peels of newly expanded leaves. Peels were taken from the abaxial leaf surface and were fixed to the glass bottom of the experimental chamber after coating the chamber surface with an optically clear and pressure-sensitive silicon adhesive (Factor II, Tucson, USA). The attached epidermal peel is subsequently immersed in an opening buffer (OB: 50 mM KCl, 5 mM MES titrated to pH 6.1 with NaOH) and incubated, at plant growth conditions, for approximately 2 h. Stomatal images were taken using a bright-field microscope capable of 400× magnification for 10 minutes in OB and subsequently in Measuring Buffer [MB: 10 mM KCl, 5 mM MES titrated to pH 6.1 with Ca(OH)2] or PAP or cordycepin or ABA (dissolved in MB) for another 50 min. In total this was a 60 minute time course and images of the epidermal section were taken every 5 minutes using NIS Elements software (Nikon, Japan). Stomata aperture width and length were measured using Image J (NIH, USA). The pore area of each stomate was calculated using these values under the assumption that the area of a stomatal pore was that of an ellipse. Data are expressed as percentage over the control.
# [2] = Accumulation of PAP analogues in leaves post-spraying; assay type: in vivo, Arabidopsis thaliana; details: foliar spray 100 mM, soil-grown wild type plants; 1 hr, 4 hr, 1 d, 4 d
# Procedure: Five week-old soil-grown wild type Arabidopsis plants were sprayed using a Studio Series IS-875 with a 0.5 mm nozzle opening (Iwata). Each plant was sprayed with approximately 100 μl of different PAP analogues (100 mM) or mock buffer (1% DMSO) and then returned to standard growth conditions. 100 mg leaf tissue was harvested and snap-frozen in liquid nitrogen at various timepoints post-spraying (1 hr, 4 hr, 1 d and 4 d). Total adenosines were extracted, derivatized and quantified by HPLC. Identification and quantification of Analogues 8, 12 and 13 were performed by comparison to authentic standards. Triplicate treatments were carried out, and data presented as mean+/−standard deviation.
# AtSAL1 = target: T1, AtSAL1; assay: Inhibition of in vitro AtSAL1 activity against PAP; assay type: biochemical; details: against 50 μM PAP, Analogue 12 at 0, 3.35, 13.4 or 50 μM
# Procedure: For estimation of inhibition of AtSAL1 activity by PAP analogue 12, 200 ng of purified recombinant SAL1 protein was incubated in 75 μl 2×activity buffer (200 mM Tris-MES pH 7.5, 2 mM Mg acetate) and Analogue 12 at a concentration of 0, 3.35, 13.4 or 50 μM for 1 hour at room temperature. The samples were then placed on ice, and 75 μl PAP added for a final reaction condition of 100 mM Tris-MES pH 7.5, 1 mM Mg acetate and 50 μM PAP. The reaction was allowed to proceed at 25 degrees Celsius for 5 minutes, then stopped by flash freezing in liquid nitrogen. The AMP formed from degradation of PAP by SAL1 was quantified by derivatization and resolving on HPLC. Duplicate treatments were carried out, and data presented as mean+/−standard error.
molecule,measurement,setting,value
Nc1ncnc2c1ncn2[C@@H]1O[C@H](COP(=O)(O)OP(=O)(O)OP(=O)(O)O)[C@@H](O)[C@H]1O [ATP],accumulation of PAP in leaves,[1],significantly enhanced
same,stomatal closure response to exogenous PAP with co-treatment,stomata,"a stronger, cumulative response was achieved"
"CCNC(=O)C1OC(n2cnc3c(N)ncnc32)C(O)C1O (stereo not shown) [Analogue 8, 5-(6-amino-9H-purin-9-yl)-N-ethyl-3,4-dihydroxytetrahydro-2-furancarboxamide]",accumulation of PAP analogue in leaf tissue after spraying,[2],showed rapid accumulation of PAP analogues to levels comparable with those for PAP found in leaf tissue in vivo
"COC(=O)C1OC(n2cnc3c(N)ncnc32)C(O)C1O (stereo not shown) [Analogue 13, methyl 5-(6-amino-9H-purin-9-yl)-3,4-dihydroxytetrahydro-2-furancarboxylate]",accumulation of PAP analogue in leaf tissue after spraying,[2],showed rapid accumulation of PAP analogues to levels comparable with those for PAP found in leaf tissue in vivo
"Nc1ncnc2c1nc(S)n2C1OC(CO)C(O)C1O (stereo not shown) [Analogue 12, 2-(6-amino-8-mercapto-9H-purin-9-yl)-5-(hydroxymethyl) tetrahydro-3,4-furandiol]",accumulation of PAP analogue in leaf tissue after spraying,[2],showed rapid accumulation of PAP analogues to levels comparable with those for PAP found in leaf tissue in vivo
same,inhibition of in vitro SAL1 activity,AtSAL1,inhibition of in vitro SAL1 activity
same,inhibition of in vitro SAL1 activity,AtSAL1; listed as analogue 12,found to inhibit in vitro SAL1 activity
"CNC(=N)NCCC[C@H](N)C(=O)O [NMA, N(G)-methyl-L-arginine]",effect of inhibitor on ABA-induced stomatal closure,stomata,reduced ABA-induced stomatal closure in Col-0Ler
[Cl-].[Li+] [LiCl],accumulation of PAP in leaves,[1],significantly enhanced
same,stomatal closure response to exogenous PAP with co-treatment,stomata,"a stronger, cumulative response was achieved"
"Nc1ncnc2c1ncn2[C@@H]1O[C@H](CO)C[C@H]1O [Analogue 16, 3′-deoxyadenosine]",stomatal closure in leaf peels,"stomata; leaf peels of wild type plants, 1 hr, PAP 100 μM, ABA 100 μM, cordycepin 10 μM",elicited rapid stomatal closure similar to the PAP response
"Cc1c2oc3c(C)ccc(C(=O)N[C@@H]4C(=O)N[C@H](C(C)C)C(=O)N5CCC[C@H]5C(=O)N(C)CC(=O)N(C)[C@@H](C(C)C)C(=O)O[C@@H]4C)c3nc-2c(C(=O)N[C@@H]2C(=O)N[C@H](C(C)C)C(=O)N3CCC[C@H]3C(=O)N(C)CC(=O)N(C)[C@@H](C(C)C)C(=O)O[C@@H]2C)c(N)c1=O [actinomycin D] (I: T[dV]P[Sar][NMeV] / II: T[dV]P[Sar][NMeV]; ester I:1-I:C, II:1-II:C; linker I:N-II:N via Actinocin(9to1))",effect of inhibitor on ABA-induced stomatal closure,stomata,suppressed ABA-mediated closure to a lesser extent in ost1-2 alx8 than in the wild type
B1,kcat (enzyme activity against PAP),,up to 6-fold decrease in kcat for the oxidized dimeric rSAL1
